The numbers were not newly measured in patent publication US12421495B2, “Compositions and methods for selective phagocytosis of human cancer cells” (THE TRUSTEES OF THE UNIVERSITY OF PENNSYLVANIA, priority 2015, dated 2025), which cites them from elsewhere.

SMILES strings stand for the structures.

For this series, the system named is tdTomato A549 tumors. The settings on record: same tumor model; Nair et al. 2016.

As to `CC(=O)O[C@H]1C(=O)[C@@]2(C)[C@H]([C@H](OC(=O)c3ccccc3)[C@]3(O)C[C@H](OC(=O)[C@H](O)[C@@H](NC(=O)c4ccccc4)c4ccccc4)C(C)=C1C3(C)C)[C@]1(OC(C)=O)CO[C@@H]1C[C@@H]2O` [Paclitaxel], the “tumor shrinkage by day 10” value is −25%.
